From patent US8829033B2, “N-benzylamide substituted derivatives of 2-(acylamido)acetic acid and 2-(acylamido)propionic acids: potent neurological agents” (The University of North Carolina at Chapel Hill, priority 2009, dated 2014)
Read-outs that look alike come from different tables or passages of the source.

Experiments:
Rat [1] = experiment: Maximal electroshock seizure (MES) test, rat (po); assay type: in vivo
Description: (§2) The maximal electroconvulsive shock (MES) test is regarded as a standard screen for anticonvulsant activity in terms of inhibition of seizure spread in generalized tonic-clonic seizures.
(§3) Groups of at least 8 male albino CF No. 1 mice or male albino Sprague-Dawley rats are treated with 10 mL/kg i.p. or 4 mL/kg p.o. of the test compound solution, respectively. The electrical stimulus in the MES test is 50 mA at 60 Hz for mice and 150 mA at 60 Hz for rats, both delivered for 0.2 sec. Abolition of the hind leg tonic extensor component of the seizure is used as the endpoint.

[2] = Neurological toxicity, rotorod test, mice (ip); assay type: in vivo; conditions: male, CF No 1, mouse, in vivo
Description: (§1) Tests are conducted in groups of at least 8 mice or rats to determine the intrinsic neurotoxicity (neuromuscular impairment) after administration of the test compound by the route of administration to be used in the pharmacology studies. Neurotoxicity is determined in male CF No 1 mice by the rotarod procedure. Inability of the mouse to maintain its equilibrium in 3 trials during 1 min on this rotating rod (6 rpm) is used as an indication of such impairment. In Sprague-Dawley rats, minimal motor impairment (MMI) is determined by overt evidence of ataxia, abnormal gait, and stance.

[3] = Behavioral toxicity, rat (po); assay type: in vivo; conditions: Sprague-Dawley, in vivo, po, read-out: Rat (po) Tox, TD50
Description: as §1

Mice [4] = test system: Mice
Description: as §2, §3

Mice [5] = experiment: Maximal electroshock seizure (MES) test, mice (ip);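 also: male albino CF No. 1 mice dosed ip, MES stimulus 50 mA at 60 Hz lasting 0.2 s, efficacy endpoint is loss of hind leg tonic extension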
Description: as §2, §3

Mice [6] = experiment: 6 Hz test, mice (ip); assay type: in vivo
Mice [7] = experiment: Neurological toxicity, rotorod test, mice (ip); assay type: in vivo
Description: as §1

Rat [8] = experiment: Behavioral toxicity, rat (po); assay type: in vivo
Description: as §1

Mice [9] = experiment: Formalin test (mice, ip); assay type: in vivo; conditions: for Formalin Assay Acute (%) / Formalin Assay Inflam. (%): mice, ip
Description: Compounds of the present invention were active in treating pain in a formalin test carried out in accordance with standard techniques, as described in S. Hunskaar et al., J. Neurosci. Methods 14: 69-76 (1985). Briefly, 0.5% formalin is injected into the mouse hind paw to elicit a bi-phasic licking response, where the first acute phase is thought to correspond to the direct stimulation of peripheral fibers and the second (inflammatory) phase is caused by the release of inflammatory mediators.
Spinal/supraspinal plasticity of nociception is considered as a molecular basis for neuropathic pain particularly during the second (late) phase of the test (Dubuisson & Dennis, 1977; Coderre et al., 1990; Coderre & Melzack, 1992), during which most clinically used drugs against neuropathic pain are active.

Rats [10] = experiment: Hippocampal kindling test, rats (ip); assay type: in vivo; conditions: rats
Description: The kindling model provides a tool to predict a test compound's activity in complex partial seizures.
Male albino Sprague-Dawley rats (n=8) are kindled to a Stage 5 behavioral seizure. They are treated with an appropriate i.p. dose of the test compound after a 1-week, stimulus-free period. The test compound is evaluated for its effect on kindled motor seizures (seizures scores of 4 and 5), limbic behavior seizures (seizure scores between 1 and 3) and after-discharge duration. After 15 min, each rat is stimulated every 30 min for 3-4 h. Following each stimulation, individual seizure scores and after-discharge duration are recorded. The group mean and standard error of the mean (SEM) are calculated for each parameter.

Rats [11] = experiment: Partial sciatic nerve ligation model (rats, ip); assay type: in vivo; conditions: dose 12 (mg), at 1 h, p < 0.05
Mice [12] = conditions: Ref 30, 16, 32; cited from earlier work
Rat [13] = conditions: Ref 16, 32; cited from earlier work
Mice [14] = conditions: rotorod, Ref 30, 16, 32; cited from earlier work
Rat [15] = conditions: Ref 16, 32; cited from earlier work; remark: listed apart in the source
[16] = Table b501, orally, behavioral toxicity
[17] = Table b501, ip, protective index (TD50/ED50)
[18] = Rattus norvegicus, read-out: Rat (po) MES, ED50

COC[C@@H](NC(C)=O)C(=O)NCc1ccc(C2(C(F)(F)F)N=N2)cc1 [(R)-9, (R)-2-Acetamido-3-methoxy-N-(4-(3-(trifluoromethyl)-3H-diazirin-3-yl)benzyl)propanamide]
ED50 (Rat [1]; read-out: Rat (po) MES, ED50): > 30 mg/kg | TD50 ([2]; read-out: Mice (ip) Tox, TD50): 68 mg/kg | TD50 [3]: > 30 mg/kg | melting point: 195 °C (dec.) | Mice (ip) MES, ED50 (Mice [4]): 15.05 [0.25] (13.93- 16.39) | Mice (ip) PI (Mice [5]; ip, PI=TD50/ED50): 4.4

COC[C@@H](NC(C)=O)C(=O)NCc1ccc(OCc2cccc(F)c2)cc1 [(R)-10, (R)-2-Acetamido-N-(4-(3-fluorobenzyloxy)benzyl)-3-methoxypropanamide]
Rat (po) MES, ED50 (Rat [1]): 4.9 [1] | Rat (po) PI (Rat [1]; PI=TD50/ED50): >57 | ED50 (Rat [1]; Rattus norvegicus, Table b500, orally, read-out: Rat (po) MES, ED50): 14 mg/kg | ED50 (Rat [1]; Rattus norvegicus, Table b502, orally, read-out: Rat (po) MES, ED50): 14 mg/kg | ED50 (Rat [1]; Rattus norvegicus, read-out: Rat (po) MES, ED50, Table b501, orally): 1.4 mg/kg | Rat (po) PI (Rat [1]; Table b500, protective index (TD50/ED50)): >36 | Rat (po) PI (Rat [1]; Table b501, protective index (TD50/ED50)): >36 | Rat (po) PI (Rat [1]; Table b502, protective index (TD50/ED50)): >36 | Mice (ip) 6 Hz, ED50 (Mice [6]; Table b500, intraperitoneally): ~10 [0.25] mg/kg | Mice (ip) 6 Hz, ED50 (Mice [6]; Table b501, intraperitoneally): ~10 [0.25] mg/kg | Mice (ip) 6 Hz, ED50 (Mice [6]; Table b502, intraperitoneally): ~10 [0.25] mg/kg | Mice (ip) Tox, TD50 (Mice [7]; Table b500, rotorod test): 26 [0.5] mg/kg | Mice (ip) Tox, TD50 (Mice [7]; Table b502, rotorod test): 26 [0.5] mg/kg | Mice (ip) Tox, Td50 (Mice [7]; rotorod test): 26 [0.5] mg/kg | Rat (po) Tox, TD50 (Rat [8]; Table b500, orally, behavioral toxicity): >500 [0.5] mg/kg | Rat (po) Tox, TD50 (Rat [8]; [16]): >500 [0.5] mg/kg | Rat (po) Tox, TD50 (Rat [8]; Table b502, orally, behavioral toxicity): >500 [0.5] mg/kg | Rat (po) Tox, TD50 (Rat [8]; po): > 280 mg/kg | Formalin Test (mice, ip) Inflammatory (%) (Mice [9]; duration of licking as percent of control, late phase, dose 15 mg/kg): 44 (10) % | Formalin Assay Acute (%) (Mice [9]; dose 25 (mg)): 80% | Formalin Assay Inflam. (%) (Mice [9]; dose 25 (mg)): 70% | Preliminary Hippocampal Kindling Test (Rats) After discharge duration, Drug (Rats [10]; after drug (pre-drug duration in neighbouring column)): 0 s | Preliminary Hippocampal Kindling Test (Rats) Seizure Score, Drug (Rats [10]; after drug (pre-drug score in neighbouring column)): 0 | Mice (ip) PI (Mice [5]; Table b500, ip, protective index (TD50/ED50)): 2 | Mice (ip) MES, ED50 (Mice [5]; Table b501, intraperitoneally): 13 [0.25] mg/kg | Mice (ip) PI (Mice [5]; [17]): 2 | Mice (ip) MES, ED50 (Mice [5]; Table b502, intraperitoneally): 13 [0.25] mg/kg | Mice (ip) PI (Mice [5]; Table b502, ip, protective index (TD50/ED50)): 2 | Mice (ip) PI (Mice [5]; ip, PI=TD50/ED50): ~3.1

COC[C@@H](NC(C)=O)C(=O)NCc1ccc(Oc2cccc(F)c2)cc1 [(R)-12, (R)—N-4′-((3″-Fluoro)phenoxy)benzyl 2-N-Acetamido-3-methoxypropionamide]
ED50 (Mice [6]; Mus musculus, ip, intraperitoneally): ~10 mg/kg | TD50 ([2]; rotorod test, read-out: Mice (ip) Tox, Td50): 23 mg/kg | Rat (po) Tox, TD50 (Rat [8]; [16]): >10 [0.25-4.0] mg/kg | melting point: 125 to 126 °C | Mice (ip) MES, ED50 (Mice [5]; Table b501, intraperitoneally): 5.5 [0.25] (3.2-6.3) mg/kg | Mice (ip) PI (Mice [5]; [17]): 4.2

COCCCc1ccc(CNC(=O)[C@@H](COC)NC(C)=O)cc1 [(R)-7]
ED50 (Rat [1]; [18]): 16 mg/kg | TD50 ([2]; read-out: Mice (ip) Tox, TD50): 62 mg/kg | TD50 [3]: > 500 mg/kg

COCc1ccc(CNC(=O)[C@@H](COC)NC(C)=O)cc1 [(R)-8]
ED50 (Rat [1]; [18]): 45 mg/kg | TD50 ([2]; read-out: Mice (ip) Tox, TD50): 180 mg/kg | TD50 [3]: > 500 mg/kg

COC[C@@H](NC(C)=O)C(=O)NCc1ccc(OCc2cccc(F)c2)cc1 [(R)-3, (R)-2-Acetamido-N-(4-(3-fluorobenzyloxy)benzyl)-3-methoxypropanamide]
Rat (po) PI (Rat [1]; PI=TD50/ED50): >36 | TD50 ([2]; read-out: Mice (ip) Tox, TD50): 26 mg/kg | Formalin Assay Acute (%) (Mice [9]; dose 15 (mg)): 35% | Formalin Assay Inflam. (%) (Mice [9]; dose 15 (mg)): 44% | Partial Sciatic Nerve Ligation Assay: attenuation of mechanical allodynia (Rats [11]): 11.2 fold attentaution of mechanical | Mice (ip) Mes, ED50 (Mice [12]): 4.5 [0.5] mg/kg | Rat (po) MES, ED50 (Rat [13]): 3.9 [2.0] mg/kg | Mice (ip) Tox, TD50 (Mice [14]): 27 [0.25] mg/kg | Rat (po) Tox, TD50 (Rat [15]): >500 mg/kg | Mice (ip) MES, ED50 (Mice [5]; ip): 13 [0.25] | Mice (ip) PI (Mice [5]; ip, PI=TD50/ED50): ~2

CC(=O)N[C@@H](C)C(=O)NCc1ccccc1 [(S)-4, reference compound]
Mice (ip) Mes, ED50 (Mice [12]): 8.0 mg/kg | Mice (ip) Tox, TD50 (Mice [14]): 630 mg/kg

COC[C@@H](NC(C)=O)C(=O)NCc1ccc(OC(F)(F)F)cc1 [(R)-4]
ED50 (Rat [1]; [18]): > 30 mg/kg | TD50 [3]: > 30 mg/kg | Formalin Assay Acute (%) (Mice [9]; dose 4.0 (mg)): 52% | Formalin Assay Inflam. (%) (Mice [9]; dose 4.0 (mg)): 50% | Mice (ip) PI (Mice [5]; ip, PI=TD50/ED50): ~9.3
